Consider two molecules from US10596137B2, “Medium chain fatty acids and their triglycerides for treating anxiety” (NESTEC S.A., priority 2015, dated 2020).

Entries after “also recorded” stand apart in the source; their conditions may differ.

The experiment can be described thus: Temporal dynamics of plasma and brain ketones after octanoic or decanoic acid ingestion. Format: in vivo, rat. Particulars: after ingestion (oral gavage); for plasma and brain β-HB (ketone) levels: kinetics. The method, then:
Blood was drawn from the tail vein 7 days after initiation of treatment and trunk blood was collected during sacrifice. Blood was centrifuged and plasma samples were analysed for beta-hydroxybutyrate using a colorimetric kit (Cayman, US). For measurement of brain ketones, sample preparation involved liquid/liquid extraction of 50 μl brain tissue supernatant (pH 2), and extract derivatization with MSTFA (silylation). Analysis of BHB was performed via GC/MS, int. Standard 13C2-3-OH-But, m/z 233 (3-OH-But), m/z 118 (13C2-3-OH-But), with a calibration of 2-24 μg/ml (water); LOQ: 2 μg/ml, LOD: 0.7 μg/ml.
Control rats received oral gavage of sunflower oil, as described above. MCT8 and MCT10 received oral gavage of octanoic acid or decanoic acid, respectively. Rats were sacrificed and trunk blood, portal vein blood and brain, pancreas and liver were collected as indicated.

On to `CCCCCCCC(=O)O` [octanoic acid], for which the “plasma and brain β-HB (ketone) levels” value is reported as “more rapid increase; also recorded: rapid increase”. Further, where the note is “octanoic compared to decanoic acid”, the plasma ketone levels result is listed as “increased more rapidly”.
Turning to `CCCCCCCCCC(=O)O` [decanoic acid], the “plasma and brain β-HB (ketone) levels” value is reported as “longer-lasting increase; also recorded: prolonged increase”.
